Measured values from ChEMBL document CHEMBL1201862, “PubChem BioAssay data set” (2004).
Active and inactive are the calls of the source.

Assays:
[1] = biological target: T1, High affinity choline transporter 1 (Homo sapiens, UniProt Q9GZV3); assay: CHT inhibitors, dose response, cell-based, 10-point CRC, membrane potential dye (AID 588401); format: functional;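 also: membrane potential dye fluorescence of choline-evoked depolarization via CHT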
T1 sequence (Q9GZV3 whole entry): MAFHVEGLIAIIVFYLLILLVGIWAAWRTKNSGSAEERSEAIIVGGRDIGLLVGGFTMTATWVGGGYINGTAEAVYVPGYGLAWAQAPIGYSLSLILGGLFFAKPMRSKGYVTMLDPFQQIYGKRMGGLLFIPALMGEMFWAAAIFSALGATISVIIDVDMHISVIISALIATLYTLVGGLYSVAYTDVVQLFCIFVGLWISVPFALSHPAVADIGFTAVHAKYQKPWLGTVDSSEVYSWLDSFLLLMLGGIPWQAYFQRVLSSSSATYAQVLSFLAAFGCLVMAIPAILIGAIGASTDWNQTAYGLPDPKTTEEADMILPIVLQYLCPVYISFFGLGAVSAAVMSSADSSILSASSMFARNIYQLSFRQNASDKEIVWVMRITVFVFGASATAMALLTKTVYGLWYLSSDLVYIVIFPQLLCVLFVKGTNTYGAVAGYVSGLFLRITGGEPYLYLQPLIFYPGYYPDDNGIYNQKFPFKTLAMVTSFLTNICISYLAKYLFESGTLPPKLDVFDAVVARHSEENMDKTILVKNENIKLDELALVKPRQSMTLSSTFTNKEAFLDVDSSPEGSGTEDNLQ

[2] = biological target: T1, High affinity choline transporter 1; assay: CHT inhibitors, dose response, cell-based, 5-point CRC, membrane potential dye (AID 504840); format: functional
[3] = biological target: DNA (cytosine-5)-methyltransferase 1 (Homo sapiens, UniProt P26358); assay: DNMT1 methyltransferase inhibitors, confirmation, biochemical, fluorescent molecular beacon (AID 602386); format: functional
[4] = biological target: T2, Low molecular weight phosphotyrosine protein phosphatase (Homo sapiens, UniProt P24666); format: functional; conditions: read-out: IC50_Mean
T2 sequence (P24666 whole entry): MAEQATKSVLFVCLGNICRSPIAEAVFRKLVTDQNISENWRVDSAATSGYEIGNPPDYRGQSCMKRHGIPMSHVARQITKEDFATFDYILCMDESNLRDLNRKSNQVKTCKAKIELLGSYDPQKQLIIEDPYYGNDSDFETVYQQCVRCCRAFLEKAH

[5] = biological target: T2, Low molecular weight phosphotyrosine protein phosphatase; format: functional; conditions: read-out: IC50_Mean; remark: listed apart in the source
[6] = biological target: T3, Ubiquitin-conjugating enzyme E2 N (Homo sapiens, UniProt P61088); format: functional;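 also: Dose-response confirmation in a TR-FRET assay detecting UBC13-driven polyubiquitin chain formation, inhibition measured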
T3 sequence (P61088 whole entry): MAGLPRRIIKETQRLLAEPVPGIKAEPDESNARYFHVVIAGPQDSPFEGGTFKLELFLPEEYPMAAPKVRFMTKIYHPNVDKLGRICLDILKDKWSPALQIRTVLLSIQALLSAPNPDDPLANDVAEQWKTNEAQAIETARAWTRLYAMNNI

Interleukin-8 = Interleukin-8 (Homo sapiens, UniProt P10145); assay: Dose Response confirmation of uHTS small molecule hits for cystic fibrosis induced NFkb Inhibitors in a PAF-induced IL8 counterscreen.; format: functional; conditions: read-out: IC50_Mean
Interleukin-8, sequence (P10145 whole entry): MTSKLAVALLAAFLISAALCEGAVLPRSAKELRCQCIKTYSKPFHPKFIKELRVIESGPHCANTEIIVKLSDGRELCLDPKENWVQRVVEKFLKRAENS

Beta Lactamase = Beta Lactamase (Pseudomonas aeruginosa, UniProt Q932Y6); assay: beta-lactamase reporter inhibitor potency, dose response, artefact control for NOD2-RIPK2 interaction inhibitor project, BLA reporter cells, FRET fluorescence (AID 651552); format: functional, cell-based
Beta Lactamase, sequence (Q932Y6 whole entry): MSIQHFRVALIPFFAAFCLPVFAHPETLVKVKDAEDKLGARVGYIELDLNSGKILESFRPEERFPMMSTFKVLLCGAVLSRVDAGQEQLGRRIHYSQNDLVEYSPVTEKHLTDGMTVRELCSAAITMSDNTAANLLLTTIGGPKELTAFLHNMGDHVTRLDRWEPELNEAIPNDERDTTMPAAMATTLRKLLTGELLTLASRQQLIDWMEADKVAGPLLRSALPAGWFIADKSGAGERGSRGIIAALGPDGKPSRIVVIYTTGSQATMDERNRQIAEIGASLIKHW

[7] = biological target: Glucose-6-phosphate 1-dehydrogenase (Homo sapiens, UniProt P11413); assay: human G6PD enzyme inhibitors, dose response, selectivity assay for P. falciparum G6PD inhibitor project, biochemical, fluorescence (AID 504792); format: functional
Glucose-6-phosphate 1-dehydrogenase, sequence (P11413 whole entry, the tested form may be a part): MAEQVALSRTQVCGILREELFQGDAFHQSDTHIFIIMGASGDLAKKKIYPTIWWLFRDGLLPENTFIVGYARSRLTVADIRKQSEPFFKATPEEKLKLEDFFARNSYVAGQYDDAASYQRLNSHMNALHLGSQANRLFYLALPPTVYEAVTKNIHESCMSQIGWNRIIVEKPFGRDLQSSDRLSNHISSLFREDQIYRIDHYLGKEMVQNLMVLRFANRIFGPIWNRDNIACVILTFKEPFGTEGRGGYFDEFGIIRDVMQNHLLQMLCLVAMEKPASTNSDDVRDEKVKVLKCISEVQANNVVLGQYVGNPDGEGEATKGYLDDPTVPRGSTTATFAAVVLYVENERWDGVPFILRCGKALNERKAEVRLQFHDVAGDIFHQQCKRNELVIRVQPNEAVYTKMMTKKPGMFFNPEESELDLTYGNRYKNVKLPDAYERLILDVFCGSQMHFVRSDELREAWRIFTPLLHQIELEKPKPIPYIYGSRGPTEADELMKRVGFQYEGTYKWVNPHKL

[8] = Fluorescence-based cell-based high throughput dose response assay for inhibitors of the interaction of nucleotide-binding oligomerization domain containing 2 (NOD2) and the receptor-interacting serine-threonine kinase 2 (RIPK2).; format: functional; conditions: Homo sapiens
[9] = Luminescence Cell-Based Dose Response HTS to Identify Activators of Luciferase Translation or Activity in H4 […] Cells. [Related pubchem assays: 1829 (Project Summary), 1814 (Primary HTS)]; format: functional
H4 = assay: Luminescence Cell-Based Dose Response HTS to Identify Activators of 5'UTR Stem-Loop Driven Prion Protein mRNA Translation in H4 Neuroglioblastoma Cells. [Related pubchem assays: 1829 (Project Summary), 1814 (Primary HTS)]; format: functional; conditions: Homo sapiens
[10] = Shn3 3'UTR reporter inhibitors, dose response, cell-based, Clone20 osteoblasts, firefly luciferase, cherry-picked (AID 624132); format: functional;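 also: firefly luciferase luminescence from reporter carrying the Shn3 3'UTR in osteoblasts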
[11] = control 3'UTR Renilla luciferase suppression, dose response, counter-screen for Shn3 inhibitor project, cell-based, Clone20-Shn3RL, cherry-picked (AID 624133); format: functional
[12] = biological target: Matrix metalloproteinase-14 (Homo sapiens, UniProt P50281); assay: Dose Response confirmation of uHTS hits for a small molecule inhibitors of MT1-MMP activation in a fluorescence assay set 2.; format: functional
[13] = HepG2 cell cytotoxicity, dose response, cytotoxicity control for Shn3 inhibitor project, CellTiter-Glo, cherry-picked (AID 624134); format: functional, cell-based
[14] = Luminescence Cell-Based Dose Confirmation HTS to Identify Activators of 5'UTR Stem-Loop Driven Alpha-Synuclein mRNA Translation in H4 Neuroglioblastoma Cells. [Related pubchem assays: 1829 (Project Summary), 1814 (Primary HTS)]; format: functional
[15] = microbe, parasite or virus in culture; format: functional; conditions: Mycobacterium tuberculosis
Vero = assay: cells; format: functional; conditions: Chlorocebus sabaeus
[16] = biological target: Neurotensin receptor type 1 (Homo sapiens, UniProt P30989); format: functional;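 also: Image-based confirmatory dose-response assay measuring agonist activity at NTR1; NTR1-expressing U2OS osteosarcoma cells imaged for beta-arrestin GFP spot formation; agonist potency where compounds increase beta-arrestin recruitment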
Neurotensin receptor type 1, sequence (P30989 whole entry): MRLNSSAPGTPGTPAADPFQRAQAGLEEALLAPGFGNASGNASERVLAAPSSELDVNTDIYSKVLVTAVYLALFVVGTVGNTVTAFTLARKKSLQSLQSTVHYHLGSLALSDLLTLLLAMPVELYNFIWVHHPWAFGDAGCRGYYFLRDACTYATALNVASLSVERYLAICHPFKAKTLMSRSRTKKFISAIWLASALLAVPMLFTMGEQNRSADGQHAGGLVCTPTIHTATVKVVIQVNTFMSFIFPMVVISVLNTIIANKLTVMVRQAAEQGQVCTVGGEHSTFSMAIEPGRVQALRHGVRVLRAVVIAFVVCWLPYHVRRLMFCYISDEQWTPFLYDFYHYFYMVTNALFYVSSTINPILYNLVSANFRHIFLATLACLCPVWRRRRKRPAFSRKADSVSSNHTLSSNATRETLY

[17] = nonselective inhibitors of cellular cAMP signaling, dose response, counter-screen for MC4R biased antagonist project, cell-based, TR-FRET cAMP detection (AID 602305); format: functional;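 also: U2OS cells stimulated with forskolin near its EC80 as the cAMP inducer; potency is for inhibition of forskolin-stimulated cAMP signaling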
Melanocortin receptor 4 = Melanocortin receptor 4 (Homo sapiens, UniProt P32245); assay: MC4R antagonist potency on cAMP, dose response, cell-based, TR-FRET, biased antagonists (AID 602298); format: functional;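 also: antagonist potency against agonist-stimulated cAMP production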
Melanocortin receptor 4, sequence (P32245 whole entry): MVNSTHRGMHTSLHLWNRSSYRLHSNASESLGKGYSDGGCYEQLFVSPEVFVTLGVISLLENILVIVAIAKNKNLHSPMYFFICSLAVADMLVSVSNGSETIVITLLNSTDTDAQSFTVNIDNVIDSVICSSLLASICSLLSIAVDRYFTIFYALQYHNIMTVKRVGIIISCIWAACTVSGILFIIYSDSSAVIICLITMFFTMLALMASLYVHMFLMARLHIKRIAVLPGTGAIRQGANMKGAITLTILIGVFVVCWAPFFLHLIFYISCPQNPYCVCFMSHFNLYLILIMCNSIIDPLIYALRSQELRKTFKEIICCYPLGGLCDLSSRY

[18] = biological target: Heat shock protein HSP 90-alpha (Homo sapiens, UniProt P07900); format: functional, organism-based
[19] = HeLa cell cytotoxicity, dose response, cytotoxicity control for MgcRacGAP inhibitor project (AID 624300); format: functional
[20] = biological target: T4, Rac GTPase-activating protein 1 (Homo sapiens, UniProt Q9H0H5); assay: MgcRacGAP GTPase-activating activity inhibitors, confirmation, biochemical, ADP Hunter fluorescence, primary and confirmatory (AID 624330); format: functional
T4 sequence (Q9H0H5 whole entry): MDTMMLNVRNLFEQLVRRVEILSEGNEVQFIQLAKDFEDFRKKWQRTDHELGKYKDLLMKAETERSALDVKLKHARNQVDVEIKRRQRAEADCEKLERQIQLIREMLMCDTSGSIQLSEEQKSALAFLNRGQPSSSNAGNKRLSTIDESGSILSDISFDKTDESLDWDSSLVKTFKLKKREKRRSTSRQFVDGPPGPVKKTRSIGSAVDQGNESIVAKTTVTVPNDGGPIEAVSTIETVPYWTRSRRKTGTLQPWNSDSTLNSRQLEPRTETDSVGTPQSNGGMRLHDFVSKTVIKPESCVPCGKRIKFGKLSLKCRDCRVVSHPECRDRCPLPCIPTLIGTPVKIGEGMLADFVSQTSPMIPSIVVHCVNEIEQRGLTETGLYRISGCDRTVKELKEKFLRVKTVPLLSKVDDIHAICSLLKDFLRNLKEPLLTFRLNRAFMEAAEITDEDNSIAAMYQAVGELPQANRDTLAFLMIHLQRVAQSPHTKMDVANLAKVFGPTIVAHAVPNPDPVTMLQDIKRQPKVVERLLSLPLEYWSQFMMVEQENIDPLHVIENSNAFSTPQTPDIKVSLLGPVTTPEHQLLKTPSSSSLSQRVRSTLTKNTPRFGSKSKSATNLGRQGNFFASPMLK

[21] = biological target: Ras and Rab interactor 1/Tyrosine-protein kinase ABL1 (Homo sapiens, UniProt P00519+Q13671); format: functional;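 also: biochemical TR-FRET dose-response test measuring inhibition of binding between Rin1 and Abl proteins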
Ras and Rab interactor 1/Tyrosine-protein kinase ABL1, sequence (P00519 whole entry): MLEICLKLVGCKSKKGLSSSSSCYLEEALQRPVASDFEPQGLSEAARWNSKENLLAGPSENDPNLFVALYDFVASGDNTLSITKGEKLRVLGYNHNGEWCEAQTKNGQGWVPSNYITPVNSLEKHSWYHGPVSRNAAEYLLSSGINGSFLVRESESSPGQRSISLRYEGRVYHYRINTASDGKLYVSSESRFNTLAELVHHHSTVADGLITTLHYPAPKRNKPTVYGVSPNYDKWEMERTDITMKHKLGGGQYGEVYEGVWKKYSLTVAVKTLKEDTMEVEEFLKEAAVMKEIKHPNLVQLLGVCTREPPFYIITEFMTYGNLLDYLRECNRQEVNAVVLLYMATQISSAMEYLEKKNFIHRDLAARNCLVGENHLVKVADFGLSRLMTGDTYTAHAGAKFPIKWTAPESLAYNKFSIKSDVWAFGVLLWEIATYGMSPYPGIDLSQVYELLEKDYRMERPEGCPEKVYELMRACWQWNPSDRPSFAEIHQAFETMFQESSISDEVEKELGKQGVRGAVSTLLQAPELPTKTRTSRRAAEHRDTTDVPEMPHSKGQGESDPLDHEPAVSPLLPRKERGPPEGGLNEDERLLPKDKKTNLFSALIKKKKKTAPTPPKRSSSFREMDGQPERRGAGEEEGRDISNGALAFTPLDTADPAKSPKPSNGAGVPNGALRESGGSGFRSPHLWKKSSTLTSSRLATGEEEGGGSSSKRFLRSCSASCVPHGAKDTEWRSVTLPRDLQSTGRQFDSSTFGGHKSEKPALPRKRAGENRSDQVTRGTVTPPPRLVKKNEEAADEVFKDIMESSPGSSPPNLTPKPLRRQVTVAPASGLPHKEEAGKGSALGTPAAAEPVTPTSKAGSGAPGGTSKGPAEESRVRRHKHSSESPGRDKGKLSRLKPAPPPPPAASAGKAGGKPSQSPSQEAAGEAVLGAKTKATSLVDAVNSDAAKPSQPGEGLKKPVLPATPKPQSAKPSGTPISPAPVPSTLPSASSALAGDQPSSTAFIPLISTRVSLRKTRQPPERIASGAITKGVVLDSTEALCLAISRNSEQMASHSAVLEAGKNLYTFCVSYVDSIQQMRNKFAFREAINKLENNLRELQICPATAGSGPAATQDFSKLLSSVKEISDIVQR
Ras and Rab interactor 1/Tyrosine-protein kinase ABL1, sequence (Q13671 whole entry): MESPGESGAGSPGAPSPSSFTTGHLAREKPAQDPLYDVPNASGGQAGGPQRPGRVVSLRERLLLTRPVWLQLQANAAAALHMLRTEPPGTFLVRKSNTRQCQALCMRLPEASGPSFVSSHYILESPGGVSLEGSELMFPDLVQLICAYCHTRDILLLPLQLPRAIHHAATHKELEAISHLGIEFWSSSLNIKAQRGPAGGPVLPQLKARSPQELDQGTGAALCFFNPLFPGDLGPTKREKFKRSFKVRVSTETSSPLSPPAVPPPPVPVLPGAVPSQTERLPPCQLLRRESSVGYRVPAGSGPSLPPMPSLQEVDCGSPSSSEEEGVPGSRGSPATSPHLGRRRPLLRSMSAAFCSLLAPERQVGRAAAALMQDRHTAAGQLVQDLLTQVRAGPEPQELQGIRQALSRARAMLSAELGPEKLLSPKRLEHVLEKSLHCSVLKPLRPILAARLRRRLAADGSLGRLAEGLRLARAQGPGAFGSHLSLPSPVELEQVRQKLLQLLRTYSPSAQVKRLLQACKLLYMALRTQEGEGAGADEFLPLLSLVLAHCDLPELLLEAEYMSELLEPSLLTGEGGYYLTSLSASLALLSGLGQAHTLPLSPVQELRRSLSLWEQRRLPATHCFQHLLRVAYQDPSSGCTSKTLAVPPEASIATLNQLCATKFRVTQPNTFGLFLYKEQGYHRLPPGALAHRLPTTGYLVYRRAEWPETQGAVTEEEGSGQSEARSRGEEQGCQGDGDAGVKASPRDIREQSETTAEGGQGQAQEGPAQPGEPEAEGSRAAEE

[22] = biological target: T5, DNA repair protein RAD52 homolog (Homo sapiens, UniProt P43351); format: functional, biochemical
T5 sequence (P43351 whole entry): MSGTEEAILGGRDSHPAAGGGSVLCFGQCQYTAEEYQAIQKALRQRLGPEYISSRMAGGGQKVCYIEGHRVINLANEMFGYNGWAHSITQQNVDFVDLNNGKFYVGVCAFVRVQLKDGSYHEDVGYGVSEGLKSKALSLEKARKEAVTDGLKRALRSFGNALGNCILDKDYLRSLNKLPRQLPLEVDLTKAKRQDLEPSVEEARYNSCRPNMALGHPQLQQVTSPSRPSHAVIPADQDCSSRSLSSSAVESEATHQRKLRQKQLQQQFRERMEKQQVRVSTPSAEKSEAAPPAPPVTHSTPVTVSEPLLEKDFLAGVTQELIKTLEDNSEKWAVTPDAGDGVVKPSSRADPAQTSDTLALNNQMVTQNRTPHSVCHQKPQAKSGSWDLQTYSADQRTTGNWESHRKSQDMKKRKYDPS

COc1cc(NS(=O)(=O)c2ccc(NC(=O)c3ccc(Cl)cc3Cl)cc2)ncn1
IC50 [1]: 9.46 µM (active) | IC50 [2]: 4.47 µM (active)

CCCCCCCCc1nnc(NC(=O)c2ccco2)s1
IC50 [3]: 42.4 µM (active)

COCCNc1nc(NCc2ccc(C)cc2C)c2sccc2n1
IC50 [4]: 13.8 µM (active) | IC50 [5]: 15.6 µM (active)

CN(C)c1ccnc2sc3c(=O)n(Cc4ccccc4)cnc3c12
IC50 [6]: > 20 µM (inactive) | IC50 (Interleukin-8): 12.2 µM (inactive)

Clc1nssc1=Nc1nncs1
IC50 (Beta Lactamase): 49.8 µM (inactive) | IC50 [7]: 42.3 µM (inactive) | IC50 [8]: 6.62 µM (active)

CC[n+]1c(/C=C/Nc2ccccc2)sc2ccccc21
EC50 [9]: > 120 µM (not active) | EC50 (H4): > 120 µM (not active) | AC50 [10]: 2.06 µM (active) | AC50 [11]: 5.83 µM (active) | IC50 [12]: 23.3 µM (inactive) | AC50 [13]: > 70 µM (inactive) | EC50 [14]: > 120 µM (not active)

O=C(c1ccc(Br)cc1)C(CN1CCOCC1)c1ccccc1 (stereo unspecified)
CC50 [15]: > 40 µM (active) | CC50 (Vero): > 25 µM (active) | EC50 [16]: 33 µM (inactive) | IC50 [17]: > 64.6 µM (inactive) | AC50 [10]: 9.4 µM (active) | AC50 [11]: 10.6 µM (active) | IC50 (Melanocortin receptor 4): > 64.6 µM (inactive) | AC50 [13]: 21.6 µM (active) | AC50 [18]: 2.85 µM (active) | IC50 [8]: 7.78 µM (active)

COc1cccc2c3cccc(OC)c3c3[nH]cnc3c12
CC50 [19]: 43.9 µM (active) | IC50 [20]: 82.8 µM (active) | IC50 [21]: 15.8 µM (inactive) | AC50 [22]: 513 nM (active)
